Results published in paper PMC7617869, “Molecular glues that inhibit deubiquitylase activity and inflammatory signaling” (Nature Structural & Molecular Biology, 2025).
Where “and” joins values, the source holds several entries; their conditions need not be identical. Equal entries are not always repeated.

Key:
[1] = test system: ISRE in THP-1 cells (TLR9 agonist ODN 2216); assay: THP-1 ISRE luciferase reporter, ODN 2216 stimulation; format: cell-based, human; conditions: ODN 2216 1 µM, 4 μM compound, 16 h
Procedure: THP-1 in vitro experiments
THP-1-DualTM cells (InvivoGen), derived from a human monocytic cell line, isolated from a patient with acute monocytic leukaemia, were cultured as per manufacturer’s guidance. Cells were seeded at 1x10^6 cells/mL in RPMI1640 media containing 10% fetal bovine serum (FBS), 1% penicillin-streptomycin (PS) (Gibco Laboratories) with DMSO (0.1%) (control) or in media containing JMS-175- […]
ng/mL) (Merck Life Science), ODN 2216 (1 µM) (Miltenyi Biotec), or Poly:IC (1 µg/mL) (InvivoGen).
Tofacitinib (Cambridge Biosciences) at 0.4 µM was used for comparison against a known JAK inhibitor.
Cells were centrifuged at 300 g for 5 minutes. Supernatant was removed and subjected to simultaneous study of the NF -κB pathway, by monitoring the activity of secreted alkaline phosphatase reporter (SEAP), and the IRF pathway, by assessing the activity o f a secreted Lucia luciferase using QUANTI - Blue ™ Solution and QUANTI -Luc™ 4 Lucia/Gaussia (InvivoGen), respectively, as per manufacturer’s instructions. Pelleted cells were used for FACS analysis using IFNα/β R1 APC-conjugated antibody or isotype control (Biotechne, FAB245A and IC002A), or unstained staining procedure with and without Zombie GreenTM (Biolegend). Samples were analysed using CytoFlex LX (Beckman) (50,000 live cells per condition). Median fluorescence intensity for APC channel gated on single cell live cells was analysed and compared as a percentage to control (no stimulation condition). […]

BRISC (FL) = target: T1, BRISC (FL) (Homo sapiens, UniProt P46736+Q15018+Q9NXR7); assay: In-gel deubiquitylation assay, TAMRA-labeled K63-tetraubiquitin, BRISC; format: biochemical; conditions: 10 μM or 100 μM inhibitor
T1 construct: full-length BRISC (FL), ARISC (FL); made in house; host or cells: Spodoptera frugiperda Sf9 insect cells (MultiBac)
Procedure: The inhibitor capzimin (Merck) was diluted in 1 mM DTT and incubated for 30 min at room temperature to reduce disulfide bonds required for inhibitor activity. […] DUBs were incubated with 750 nM TAMRA-labeled K63-tetraubiquitin (LifeSensors, SI6304T) for 10 min at 30 °C. Reactions were quenched by adding 2.5 μl of 4× SDS–PAGE loading dye (240 mM Tris-HCl pH 6.8, 40% v/v glycerol, 8% w/v SDS, 0.04% w/v bromophenol blue and 5% v/v β-mercaptoethanol). The samples were resolved on 4–12% NuPAGE Bis–Tris gels (Thermo Fisher Scientific). Gels were scanned using an iBright FL 1500 (Thermo Fisher Scientific) (excitation, 515–545 nm; emission, 568–617 nm; exposure, 500 ms).

[2] = test system: ISG expression in MCF10A Cas9 cells expressing BRCC45 WT; assay: MCF10A BRCC45 WT ISG expression (RT–qPCR); format: cell-based, human; conditions: hIFNα2 75 ng/ml, 2.5 μM, 4 h
trypsin = assay: Trypsin IQF diubiquitin selectivity assay; format: biochemical; conditions: for Normalised V0: Trypsin; for TRYPSIN, normalised activity (Ext. 1a): two replicate columns
Procedure: BRISC DUB activity was measured at room temperature using 1 nM BRISC and 500 nM IQF diubiquitin K63 substrate (LifeSensors, DU6303) in the presence of DMSO and compounds at 10 μM (final concentrations). Assays were performed in 384-well black flat-bottom low-flange plates (Corning, 35373) in buffer containing 50 mM HEPES–NaOH pH 7.0, 100 mM NaCl, 1 mg ml^−1 BSA, 1 mM DTT and 0.03% v/v Brij-35. Then, 10 μl of twofold concentrated enzyme stock was dispensed, followed by transfer of 200 nl of compounds (1 mM stock) using a 384-pin tool and a 15-min incubation at room temperature. Then, 10 μl of twofold concentrated substrate stock was added and the reaction was monitored by measuring fluorescence intensity (excitation, 540 nm; emission, 580 nm) after 20-min incubation at room temperature and ~50% of substrate was consumed. Orthogonal assays for verification of H20 and P12 hit compounds using USP2 (100 nM) and trypsin (125 nM) were performed in identical conditions.
IQF assays were performed in DUB reaction buffer containing 50 mM HEPES–NaOH pH 7.0, 100 mM NaCl, 0.1 mg ml^−1 BSA, 1 mM DTT and 0.03% v/v Brij-35. […] The final concentration of BRISC WT, all BRISC mutants, HsBRISCΔLoop, MmBRISC and DrBRISCΔNΔC was 1 nM. Other enzymes were tested at the following concentrations: 5 nM ARISC (FL), 10 nM CfBRISCΔNΔC, 250 nM AMSH* (ref. [43]), 500 nM USP2 and 1 μM trypsin (Sigma, 9002-07-7). For Michaelis–Menten experiments, 1 nM BRISC with 0–1 μM IQF K63-linked diubiquitin substrate was used. Michaelis–Menten analyses and Lineweaver–Burk plots were calculated using GraphPad Prism (version 9.0).
To assess enzymatic activity, BRISC complexes were diluted to concentrations between 1 nM and 50 nM. […] Then, 20-μl enzyme reactions were carried out in 384-well black flat-bottom low-flange plates (Corning, 35373). DUB activity was measured using IQF K63-linked diubiquitin (LifeSensors, DU6303) at 50 nM. Cleaved diubiquitin was monitored by measuring fluorescence intensity (excitation, 544 nm; emission, 575 nm; dichroic mirror, 560 nm). Fluorescence intensity was measured every minute for 30 min at 30 °C. Fluorescence intensity units were plotted against time to generate a linear reaction progress curve, where the initial velocity (V0) corresponds to the gradient of the curve (typically achieved within 15 min). IC50 values were calculated using the GraphPad Prism (version 9.0) built-in dose–response equation for inhibitor concentration versus response (variable slope).

`Cn1cc(NC(=O)c2c(Cl)cccc2Cl)c(C(=O)NC2CCN(C(=O)c3c(Cl)cccc3Cl)CC2)n1` [AP-5-145] was tested, and the “ISRE luciferase signal in THP-1 supernatant” value [1] was 228.667 and 315.667 and 335.333.

`O=C(NC1C2CNCC21)c1nn(C(=O)c2c(Cl)cccc2Cl)cc1NC(=O)c1c(Cl)cccc1Cl` (stereo not shown) [FX-171-C] was tested, and the “inhibition of BRISC cleavage of K63-linked tetraubiquitin” value (BRISC (FL)) was “inhibit”, the “ISRE luciferase signal in THP-1 supernatant” value [1] was 149.667 and 263.333 and 287.667 and the “ISG expression (ISG15, IFIT1, IFIT2, IFITM1, CXCL10)” value [2] was “reduced gene expression for all five ISGs”. For the same molecule, the “Normalised V0” value (trypsin; Fig. 1g, FX-171-C 0.02 μM) was 0.9754 and 1.082 and 1.037, the “Normalised V0” value (trypsin; Fig. 1g, FX-171-C 0.0399999 μM) was 0.8958 and 1.072 and 0.9551 and the “Normalised V0” value (trypsin; Fig. 1g, FX-171-C 0.0599997 μM) was 0.994 and 1.174 and 1.005. For the same molecule, the “Normalised V0” value (trypsin; Fig. 1g, FX-171-C 0.0799994 μM) was 0.9908 and 1.085 and 0.9856, the “Normalised V0” value (trypsin; Fig. 1g, FX-171-C 0.119998 μM) was 0.909 and 1.102 and 1.137 and the “Normalised V0” value (trypsin; Fig. 1g, FX-171-C 0.199996 μM) was 1.048 and 1.0751 and 0.9569. The “Normalised V0” value (trypsin; Fig. 1g, FX-171-C 0.499975 μM) was 0.9677 and 1.122 and 0.9918, the “Normalised V0” value (trypsin; Fig. 1g, FX-171-C 0.799936 μM) was 0.9633 and 1.093 and 0.8806 and the “Normalised V0” value (trypsin; Fig. 1g, FX-171-C 1.25984 μM) was 1.083 and 0.9949 and 1.069. For the same molecule, the “Normalised V0” value (trypsin; Fig. 1g, FX-171-C 1.9996 μM) was 1.032 and 1.136 and 0.9684, the “Normalised V0” value (trypsin; Fig. 1g, FX-171-C 3.159 μM) was 0.959 and 1.075 and 1.119 and the “Normalised V0” value (trypsin; Fig. 1g, FX-171-C 5.19739 μM) was 1.013 and 1.118 and 1.082. For the same molecule, the “Normalised V0” value (trypsin; Fig. 1g, FX-171-C 7.99364 μM) was 1.036 and 1.142 and 1.053, the “Normalised V0” value (trypsin; Fig. 1g, FX-171-C 12.7839 μM) was 1.107 and 1.095 and 0.9652 and the “Normalised V0” value (trypsin; Fig. 1g, FX-171-C 19.96 μM) was 0.9382 and 0.9859 and 0.9654. For the same molecule, the “Normalised V0” value (trypsin; Fig. 1g, FX-171-C 31.4999 μM) was 0.9264 and 1.08 and 0.8456, the “Normalised V0” value (trypsin; Fig. 1g, FX-171-C 50.147 μM) was 0.8123 and 0.9453 and 0.8818 and the “Normalised V0” value (trypsin; Fig. 1g, FX-171-C 79.7601 μM) was 0.7444 and 0.9554 and 0.7546. The “Normalised V0” value (trypsin; Fig. 1g, FX-171-C 125.99 μM) was 0.6817 and 0.8207 and 0.6739 and the “Normalised V0” value (trypsin; Fig. 1g, FX-171-C 199.922 μM) was 0.4322 and 0.4467 and 0.4966.

`O=C(NC1CCNCC1)c1nn(C(=O)c2c(Cl)cccc2Cl)cc1NC(=O)c1c(Cl)cccc1Cl` [JMS-175-2] was tested, and the “inhibition of BRISC cleavage of K63-linked tetraubiquitin” value (BRISC (FL)) was “inhibit”, the “ISG expression (ISG15, IFIT1, IFIT2, IFITM1, CXCL10)” value [2] was “reduced gene expression for all five ISGs” and the “Normalised V0” value (trypsin; Fig. 1e, JMS-175-2 0.02 μM) was 1.129 and 1.522 and 0.9592. For the same molecule, the “Normalised V0” value (trypsin; Fig. 1e, JMS-175-2 0.0399999 μM) was 1.059 and 1.128 and 0.891, the “Normalised V0” value (trypsin; Fig. 1e, JMS-175-2 0.0599997 μM) was 1.053 and 1.443 and 1.028 and the “Normalised V0” value (trypsin; Fig. 1e, JMS-175-2 0.0799994 μM) was 1.079 and 1.241 and 1.027. The “Normalised V0” value (trypsin; Fig. 1e, JMS-175-2 0.119998 μM) was 1.132 and 1.572 and 1.058, the “Normalised V0” value (trypsin; Fig. 1e, JMS-175-2 0.199996 μM) was 1.063 and 1.165 and 0.9014 and the “Normalised V0” value (trypsin; Fig. 1e, JMS-175-2 0.499975 μM) was 1.046 and 1.263 and 0.9518. The “Normalised V0” value (trypsin; Fig. 1e, JMS-175-2 0.799936 μM) was 1.084 and 1.3 and 1.031, the “Normalised V0” value (trypsin; Fig. 1e, JMS-175-2 1.25984 μM) was 1.117 and 1.247 and 0.9792 and the “Normalised V0” value (trypsin; Fig. 1e, JMS-175-2 1.9996 μM) was 1.2322 and 1.34 and 0.9526. The “Normalised V0” value (trypsin; Fig. 1e, JMS-175-2 3.159 μM) was 1.104 and 1.275 and 0.8695, the “Normalised V0” value (trypsin; Fig. 1e, JMS-175-2 5.19739 μM) was 1.019 and 1.261 and 1.016 and the “Normalised V0” value (trypsin; Fig. 1e, JMS-175-2 7.99364 μM) was 1.1 and 1.362 and 0.8881. The “Normalised V0” value (trypsin; Fig. 1e, JMS-175-2 12.7839 μM) was 1.055 and 1.3161 and 0.9778, the “Normalised V0” value (trypsin; Fig. 1e, JMS-175-2 19.96 μM) was 1.0605 and 1.284 and 0.9014 and the “Normalised V0” value (trypsin; Fig. 1e, JMS-175-2 31.4999 μM) was 1.012 and 1.285 and 0.8918. The “Normalised V0” value (trypsin; Fig. 1e, JMS-175-2 50.147 μM) was 0.965 and 1.142 and 0.7769, the “Normalised V0” value (trypsin; Fig. 1e, JMS-175-2 79.7601 μM) was 0.9096 and 1.115 and 0.8428 and the “Normalised V0” value (trypsin; Fig. 1e, JMS-175-2 125.99 μM) was 0.8068 and 0.9447 and 0.6574. For the same molecule, the “Normalised V0” value (trypsin; Fig. 1e, JMS-175-2 199.922 μM) was 0.6351 and 0.815 and 0.623, the “TRYPSIN, normalised activity (Ext. 1a)” value (trypsin; log [compound (μM)] 0.1938, listed as H20) was 1.0307 and 1.0157 and the “TRYPSIN, normalised activity (Ext. 1a)” value (trypsin; log [compound (μM)] 0.4949, listed as H20) was 1.0959 and 1.0924. For the same molecule, the “TRYPSIN, normalised activity (Ext. 1a)” value (trypsin; log [compound (μM)] 0.7959, listed as H20) was 1.0739 and 0.9776, the “TRYPSIN, normalised activity (Ext. 1a)” value (trypsin; log [compound (μM)] 1.0969, listed as H20) was 1.0282 and 0.9851 and the “TRYPSIN, normalised activity (Ext. 1a)” value (trypsin; log [compound (μM)] 1.3979, listed as H20) was 0.9308 and 0.8423. For the same molecule, the “TRYPSIN, normalised activity (Ext. 1a)” value (trypsin; log [compound (μM)] 1.6990, listed as H20) was 0.8444 and 0.8335, the “TRYPSIN, normalised activity (Ext. 1a)” value (trypsin; log [compound (μM)] 2.0000, listed as H20) was 0.8160 and 0.6662 and the “TRYPSIN, normalised activity (Ext. 1a)” value (trypsin; log [compound (μM)] 2.3010, listed as H20) was 0.6941 and 0.5461. The “TRYPSIN, normalised activity (Ext. 1a)” value (trypsin; log [compound (μM)] -0.1072, listed as H20) was 1.2914 and 1.0218, the “TRYPSIN, normalised activity (Ext. 1a)” value (trypsin; log [compound (μM)] -0.4082, listed as H20) was 1.0017 and 0.9864 and the “TRYPSIN, normalised activity (Ext. 1a)” value (trypsin; log [compound (μM)] -0.7093, listed as H20) was 0.9551 and 0.9457. For the same molecule, the “TRYPSIN, normalised activity (Ext. 1a)” value (trypsin; log [compound (μM)] -1.7100, normalisation point) was 1.0000.
